Test results reported in US6410588B1, “Use of cannabinoids as anti-inflammatory agents” (priority 1998, dated 2002).

How the values were obtained:
IL-6 = experiment: human rheumatoid synovial cell IL-6 production (ELISA); type: cell-based; details: for IL-6, mean: 48 hours culture
Description: (§1) Synovial membrane tissue was obtained from a patient fulfilling the revised American College of Rheumatology criteria for rheumatoid arthritis who underwent joint replacement surgery. Synovial cell cultures were prepared as described. Briefly, synovial membrane tissue was digested with collagenase type A (1 mg/ml) and DNAase I (0.15 mg/ml) in RPMI 1640 containing 5% FCS for 2 hours at 37° C.
(§2) Similarly, rheumatoid synovial cells spontaneously produce cytokines when cultured in vitro. […] With restricted number of human synovial cells in this sample, the optimal dose for inhibiting TNFα may have been missed.

IFNγ production = experiment: IFNγ release by PHA-stimulated human PBMC; type: cell-based; details: PHA 5 μg/ml 72 hours, mean ± SEM
Description: CBD was dissolved in ethanol/DMSO.
Peripheral blood mononuclear cells (PBMC) were isolated from the whole blood of healthy donors by Ficoll Hypaque gradient. […] After this 6 hour pretreatment period, the cells were stimulated with either LPS from Salmonella typhimirium, 10 ng/ml, for 24 hours (for TNF and IL-1β) or with PHA, 5 μg/ml, for 72 hours (for IFNγ) Viability of the PBMC was assessed with the MTT test.
Human PBMC were cultured and stimulated with or without CBD, as described in Materials and Methods. The stimulus for TNF and IL-1 production was LPS, the stimulus for IFNγ production was PHA. The results are the mean of triplicate wells±SEM. ND=not done.

TNF = experiment: human rheumatoid synovial cell TNF production (ELISA); type: cell-based; details: for TNF, mean: 48 hours culture
Description: as §1, §2

[1] = test system: ROI production by granulocytes; experiment: ROI production by granulocytes, luminol-enhanced chemiluminescence response to zymosan; type: cell-based, mouse (C57BL/6)
Description: Thioglycollate-elicited granulocytes were harvested from C57BL/6 mice by sterile lavage with PBS 18 hrs. after intraperitoneal injection with 1.5 ml thioglycollate medium (1.5 ml in 3% solution). The cells were washed and resuspended at 5×10^5 cells/ml in Hanks' buffered salt solution without phenol red, and distributed at 0.5 ml/tube into luminometer plastic tubes. […] The tube was inserted into luminometer (Biolumate LB 95 oot Berhold Wildbad Germany) which had been prewarmed to 37° C. The granulocyte luminol-enhanced chemiluminescence response to zymosan was considered as the positive control.

IL-11 = experiment: human rheumatoid synovial cell IL-11 production (ELISA); type: cell-based; details: for IL-11, mean: 48 hours culture
Description: as §1, §2

TNFα = details: cited from earlier work
EAE = experiment: experimental autoimmune encephalomyelitis (EAE); type: in vivo, mouse (SJL/J)
[2] = test system: spleen cells (splenocytes); experiment: mitogen-induced cell proliferation of spleen cells; type: cell-based, mouse (BALB/c, C57BL/6)
Description: Cultures were pulsed with ^3H-thymidine and harvested 6 hours later.
Female mice (aged 8-12 weeks) of strains C57BL/6 (B6, H-2^b) and BALB/c (H-2^d) were purchased from Harlan, Jerusalem, and maintained under specific pathogen-free (SPF) conditions in the animal facilities of the Hebrew University Medical School, Jerusalem, in accordance with the Hebrew University guidelines, DMEM (Biological Industries, Beit Haemek. Israel) was supplemented with 1 mM sodium pyruvate, 10 mM HEPES buffer, 0.5 mM asparagine-HCl, 0.03 mM filic acid, 0.5 mM L-aspartic acid, 5×10^−5M 2-mercaptoethanol, 2 mM glutamine, antibotics and 10% FCS (complete DMEM).
Spleen cells, at a final concentration of 5×10^6 cells/ml, were cultured in triplicate wells of flat-bottom microtiter plates (Nunc, Denmark) in medium alone, 2.5 μg/ml concanavalin A (ConA. Biomakor, Israel) or 50 μ/ml lipopolysaccharide (LPS, Difco). The final volume was 200 μl/well. Following two days of incubation at 37° C., in an 8% CO2-in-air incubator (as in all other procedures described here), 1 μCi of ^3H-thymidine was added to each well. Cells were harvested 6 h later, with a Tomtec (USA) cell harvester and counted in a MicroBeta scintillation counter (Wallac, Finland).

PBQ-induced writhing = details: orally at doses up to 10 mg/kg; cited from earlier work
IL-10 = experiment: human rheumatoid synovial cell IL-10 production (ELISA); type: cell-based; details: for IL-10, mean: 48 hours culture
Description: as §1, §2

chronic CIA = chronic CIA model (mouse CII), CBD i.p.; type: in vivo; details: 5 weeks
Description: Results are expressed as a mean of 6 mice. The AUC for the control group is 38.4, and for the 5 mg/kg group 28.9.
For the chronic experiments, 6 weeks old mice were immunized with mouse CII (100 μg CII i.d.=intradermal). From day 30 after immunization onwards, the mice developed a chronic relapsing arthritis, which was monitored for 5 weeks, in the same way as described above.
For the chronic experiment with mouse CII, mice were treated from the first symptoms of arthritis every other day, for 5 weeks. […] Again, mice injected with Vehicle alone served as controls (n=7). For the oral route, the treatment was administered daily at a dose of 25 mg/kg (n=6) and control mice were fed olive oil (n=6).

anticonvulsant effects = details: in vivo; cited from earlier work
TPA-induced erythema = details: applied topically; cited from earlier work

SMILES: C=C(C)[C@@H]1CCC(C)=C[C@H]1c1c(O)cc(CCCCC)cc1O [CBD, Cannabidiol]
- IL-6 release (in words) (IL-6): dose-dependent inhibition
- IL-6, mean (IL-6; CBD 0.1 μg/ml): 281 ng/mL
- IL-6, mean (IL-6; CBD 1 μg/ml): 326 ng/mL
- IL-6, mean (IL-6; CBD 20 μg/ml): 125 ng/mL
- IFNγ (IFNγ production; CBD 0.1 μg/ml): 2062 ± 316 pg/mL
- IFNγ (IFNγ production; CBD 1 μg/ml): 1082 ± 75 pg/mL
- IFNγ (IFNγ production; CBD 2.5 μg/ml): 1171 ± 138 pg/mL
- IFNγ (IFNγ production; CBD 5 μg/ml): 791 ± 43 pg/mL
- IFNγ (IFNγ production; CBD 10 μg/ml): 150 ± 43 pg/mL
- TNF, mean (TNF; CBD 0.1 μg/ml): 1963 pg/mL
- TNF, mean (TNF; CBD 1 μg/ml): 2089 pg/mL
- TNF, mean (TNF; CBD 20 μg/ml): 2271 pg/mL
- TNFa release (in words) (TNF; first initial experiment): not suppressed
- Chemiluminescence computer peak ([1]; Zymozan + CBD 5 μg/ml (1 h)): 157
- Chemiluminescence computer peak ([1]; Zymozan + CBD 6 μg/ml (0 h)): 1024
- Chemiluminescence computer peak ([1]; Zymozan + CBD 6 μg/ml (2 h)): 235
- IL-11 release (in words) (IL-11): dose-dependent inhibition
- IL-11, mean (IL-11; CBD 0.1 μg/ml): 2151 pg/mL
- IL-11, mean (IL-11; CBD 1 μg/ml): 2059 pg/mL
- IL-11, mean (IL-11; CBD 20 μg/ml): 100 pg/mL
- TNFα production (TNFα): decreased
- suppression of EAE (in words) (EAE; 10 mg/kg): markedly suppresses EAE
- Duration of EAE (EAE; CBD 10 mg/kg i.p. once a day for 14 days): 2.16 days
- Incidence of EAE (EAE; CBD 10 mg/kg i.p. once a day for 14 days, 6 SJL/J mice): 2/6
- Mean maximum score (EAE) (EAE; CBD 10 mg/kg i.p. once a day for 14 days, six point scale 0-6): 1
- response of splenocytes to Concanavalin A (ConA) and LPS (3H-thymidine) ([2]; BALB/C splenocytes): decreases the response
- response of splenocytes to Concanavalin A (ConA) and LPS (3H-thymidine) ([2]; C57BL/6 splenocytes): decreases the response
- PBQ-induced writhing (PBQ-induced writhing): inhibited PBQ-induced writhing
- IL-10 release (in words) (IL-10): dose-dependent inhibition
- IL-10, mean (IL-10; CBD 0.1 μg/ml): 273 pg/mL
- IL-10, mean (IL-10; CBD 1 μg/ml): 249 pg/mL
- IL-10, mean (IL-10; CBD 20 μg/ml): 52 pg/mL
- suppression of chronic arthritis (in words) (chronic CIA; 5 mg/kg i.p.): optimal in suppressing the arthritis
- area under the curve (AUC) of arthritis score (chronic CIA; 5 mg/kg i.p., control group 38.4): 28.9
- suppression of chronic arthritis (in words) (chronic CIA; 10 mg/kg i.p.): less effective than 5 mg/kg
- anticonvulsant effects (anticonvulsant effects): anticonvulsant effects
- TPA-induced erythema (TPA-induced erythema): reduce TPA-induced erythema
